Source: patent US20180265515A1 (Genentech, Inc., priority 2015, published 2018)

What was measured:
[1] = test system: JAK1-dependent STAT6 phosphorylation downstream of IL-13 stimulation in BEAS-2B human bronchial epithelial cells; test: JAK1 pathway assay in BEAS-2B cells (IL-13 stimulated STAT6 phosphorylation, MSD); format: cell-based; details: read-out: P-STAT6 BEAS2B + IL13 IC50
Method in brief: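 BEAS-2B human bronchial epithelial cells, plated the day before in complete growth medium, were preincubated with compound for 1 hr at 37° C (0.2% DMSO final), then stimulated with IL-13 at its EC90 for 15 min. STAT6 phosphorylation in lysates was read by MSD; EC50 was taken as 50% inhibition versus DMSO control.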

[2] = target: T1, isolated recombinant JAK2 kinase domain (Homo sapiens, UniProt O60674); test: JAK2 enzyme assay (Caliper LabChip, Ki); format: biochemical; details: 25 μM ATP
T1 construct: The activity of the isolated recombinant JAK1 and JAK2 kinase domain was measured
Method in brief: (§1)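 Values are Ki estimates derived with the Morrison tight-binding equation modified for competition with ATP. Activity of the recombinant kinase domains was measured as peptide phosphorylation on a Caliper LabChip after a 30-minute, 22° C reaction terminated by EDTA.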

[3] = target: T2, isolated recombinant JAK1 kinase domain (Homo sapiens, UniProt P23458); test: JAK1 enzyme assay (Caliper LabChip, Ki); format: biochemical; details: recombinant JAK1 kinase domain, 25 μM ATP
T2 construct: The activity of the isolated recombinant JAK1 and JAK2 kinase domain was measured
Method in brief: as §1

T2 sequence (P23458 875-1153 limits assumed): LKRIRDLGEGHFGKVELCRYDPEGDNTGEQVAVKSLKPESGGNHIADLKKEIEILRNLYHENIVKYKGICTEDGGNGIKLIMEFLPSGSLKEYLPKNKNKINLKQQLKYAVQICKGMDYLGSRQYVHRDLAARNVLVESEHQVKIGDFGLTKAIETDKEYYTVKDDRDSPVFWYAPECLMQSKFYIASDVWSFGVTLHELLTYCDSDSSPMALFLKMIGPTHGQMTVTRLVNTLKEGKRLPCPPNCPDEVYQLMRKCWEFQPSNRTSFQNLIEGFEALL
T1 sequence (O60674 849-1124 limits assumed): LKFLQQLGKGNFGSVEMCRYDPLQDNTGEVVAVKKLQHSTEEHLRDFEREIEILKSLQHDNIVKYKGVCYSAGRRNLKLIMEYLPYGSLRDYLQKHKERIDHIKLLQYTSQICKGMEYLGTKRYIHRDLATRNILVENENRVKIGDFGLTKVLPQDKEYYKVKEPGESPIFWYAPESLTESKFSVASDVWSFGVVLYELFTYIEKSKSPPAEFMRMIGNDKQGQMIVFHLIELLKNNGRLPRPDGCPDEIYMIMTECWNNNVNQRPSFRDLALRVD

SMILES | IC50 [1] | Ki [2] | Ki [3]
CC(C)Sc1ccc(OC(F)F)c(-c2nn(CC(=O)N3CCC(N4CC[S+]([O-])CC4)CC3)cc2NC(=O)c2cnn3cccnc23)c1 [Example 138, N-[3-[2-(difluoromethoxy)-5-isopropylsulfanyl-phenyl]-1-[2-oxo-2-[4-(1-oxo-1,4-thiazinan-4-yl)-1-piperidyl]ethyl]pyrazol-4-yl]pyrazolo[1,5-a]pyrimidine-3-carboxamide] | 250 nM | 0.17 nM | 0.22 nM
COC(=O)N1CCN(CC2CCN(C(=O)Cn3cc(NC(=O)c4cnn5cccnc45)c(-c4cc(SC5COC5)ccc4OC(F)F)n3)CC2)CC1 [Example 191, methyl 4-[[1-[2-[3-[2-(difluoromethoxy)-5-(oxetan-3-ylsulfanyl)phenyl]-4-(pyrazolo[1,5-a]pyrimidine-3-carbonylamino)pyrazol-1-yl]acetyl]-4-piperidyl]methyl]piperazine-1-carboxylate] | 49 nM | 1 nM | 0.44 nM
CSc1ccc(OC(F)F)c(-c2nn(CC(=O)N3CCC(N4CCS(=O)(=O)CC4)CC3)cc2NC(=O)c2cnn3cccnc23)c1 [Example 62, N-[3-[2-(difluoromethoxy)-5-methylsulfanyl-phenyl]-1-[2-[4-(1,1-dioxo-1,4-thiazinan-4-yl)-1-piperidyl]-2-oxo-ethyl]pyrazol-4-yl]pyrazolo[1,5-a]pyrimidine-3-carboxamide] | 160 nM | 0.38 nM | 0.27 nM
CC(C)Sc1ccc(OC(F)F)c(-c2n[nH]cc2NC(=O)c2cnn3cccnc23)c1 [Example 101, N-[3-[2-(difluoromethoxy)-5-(propan-2-ylsulfanyl)phenyl]-1H-pyrazol-4-yl]pyrazolo[1,5-a]pyrimidine-3-carboxamide] | 3.7 nM | 0.093 nM | 0.2 nM
CSc1ccc(OC(F)F)c(-c2nn(CC(=O)N3CCN(C4CCOC4)CC3)cc2NC(=O)c2cnn3cccnc23)c1 (stereo not drawn) [Example 54, N-[3-[2-(difluoromethoxy)-5-methylsulfanyl-phenyl]-1-[2-oxo-2-(4-tetrahydrofuran-3-ylpiperazin-1-yl)ethyl]pyrazol-4-yl]pyrazolo[1,5-a]pyrimidine-3-carboxamide] | 12 nM | 0.31 nM | 0.23 nM
CSc1ccc(OC(F)F)c(-c2nn(CC(=O)N3CCC(NCCCC#N)CC3)cc2NC(=O)c2cnn3cccnc23)c1 [Example 64, N-[1-[2-[4-(3-cyanopropylamino)-1-piperidyl]-2-oxo-ethyl]-3-[2-(difluoromethoxy)-5-methylsulfanyl-phenyl]pyrazol-4-yl]pyrazolo[1,5-a]pyrimidine-3-carboxamide] | 52 nM | 0.48 nM | 0.33 nM
CN1CCN(C2CCN(C(=O)Cn3cc(NC(=O)c4cnn5cccnc45)c(-c4cc(SC5COC5)ccc4OC(F)F)n3)CC2)CC1 [Example 190, N-[3-[2-(difluoromethoxy)-5-(oxetan-3-ylsulfanyl)phenyl]-1-[2-[4-(4-methylpiperazin-1-yl)-1-piperidyl]-2-oxo-ethyl]pyrazol-4-yl]pyrazolo[1,5-a]pyrimidine-3-carboxamide] | 170 nM | 3.8 nM | 1.1 nM
CC(C)Sc1ccc(OC(F)F)c(-c2nn(CC(=O)N3CCC(CN4CCOCC4)CC3)cc2NC(=O)c2cnn3cccnc23)c1 [Example 136, N-[3-[2-(difluoromethoxy)-5-isopropylsulfanyl-phenyl]-1-[2-[4-(morpholinomethyl)-1-piperidyl]-2-oxo-ethyl]pyrazol-4-yl]pyrazolo[1,5-a]pyrimidine-3-carboxamide] | 20 nM | 1.2 nM | 0.49 nM
CSc1ccc(OC(F)F)c(-c2nn(CC(=O)N3CCC(N4CCC(C#N)CC4)CC3)cc2NC(=O)c2cnn3cccnc23)c1 [Example 18, N-[1-[2-[4-(4-cyano-1-piperidyl)-1-piperidyl]-2-oxo-ethyl]-3-[2-(difluoromethoxy)-5-methylsulfanyl-phenyl]pyrazol-4-yl]pyrazolo[1,5-a]pyrimidine-3-carboxamide] | 6 nM | 0.37 nM | 0.24 nM
CSc1ccc(OC(F)F)c(-c2nn(CC(=O)N3CCC(NCC(C)C#N)CC3)cc2NC(=O)c2cnn3cccnc23)c1 (stereo not drawn) [Example 30, N-[1-[2-[4-(2-cyanopropylamino)-1-piperidyl]-2-oxo-ethyl]-3-[2-(difluoromethoxy)-5-methylsulfanyl-phenyl]pyrazol-4-yl]pyrazolo[1,5-a]pyrimidine-3-carboxamide] | 8.7 nM | 0.38 nM | 0.29 nM
CNC(=O)[C@@H]1CCCN1C1CCN(C(=O)Cn2cc(NC(=O)c3cnn4cccnc34)c(-c3cc(SC)ccc3OC(F)F)n2)CC1 [Example 52, N-[3-[2-(difluoromethoxy)-5-methylsulfanyl-phenyl]-1-[2-[4-[(2S)-2-(methylcarbamoyl)pyrrolidin-1-yl]-1-piperidyl]-2-oxo-ethyl]pyrazol-4-yl]pyrazolo[1,5-a]pyrimidine-3-carboxamide] | 43 nM | 0.44 nM | 0.29 nM
CSc1ccc(OC(F)F)c(-c2nn(CC(=O)N3CCN([C@H]4CC[C@H](C#N)CC4)CC3)cc2NC(=O)c2cnn3cccnc23)c1 [Example 100, N-[1-[2-[4-(4-cyanocyclohexyl)piperazin-1-yl]-2-oxo-ethyl]-3-[2-(difluoromethoxy)-5-methylsulfanyl-phenyl]pyrazol-4-yl]pyrazolo[1,5-a]pyrimidine-3-carboxamide] | 9.4 nM | 0.6 nM | 0.41 nM
CSc1ccc(OC(F)F)c(-c2nn(CC(=O)N3CCC(CN4CCN(CC(=O)N(C)C)[C@H](C)C4)CC3)cc2NC(=O)c2cnn3cccnc23)c1 [Example 97, N-[3-[2-(difluoromethoxy)-5-methylsulfanyl-phenyl]-1-[2-[4-[[(3R)-4-[2-(dimethylamino)-2-oxo-ethyl]-3-methyl-piperazin-1-yl]methyl]-1-piperidyl]-2-oxo-ethyl]pyrazol-4-yl]pyrazolo[1,5-a]pyrimidine-3-carboxamide] | 30 nM | 0.62 nM | 0.38 nM
CN(C1CCN(C(=O)Cn2cc(NC(=O)c3cnn4cccnc34)c(-c3cc(SC4COC4)ccc3OC(F)F)n2)CC1)C1COC1 [Example 187, N-[3-[2-(difluoromethoxy)-5-(oxetan-3-ylsulfanyl)phenyl]-1-[2-[4-[methyl(oxetan-3-yl)amino]-1-piperidyl]-2-oxo-ethyl]pyrazol-4-yl]pyrazolo[1,5-a]pyrimidine-3-carboxamide] | 250 nM | 1.3 nM | 0.54 nM
CSc1ccc(OC(F)F)c(-c2nn(CC(=O)N3CCC(CN4CCN(CC(=O)N(C)C)CC4)CC3)cc2NC(=O)c2cnn3cccnc23)c1 [Example 25, N-(3-(2-(difluoromethoxy)-5-(methylthio)phenyl)-1-(2-(4-((4-(2-(dimethylamino)-2-oxoethyl)piperazin-1-yl)methyl)piperidin-1-yl)-2-oxoethyl)-1H-pyrazol-4-yl)pyrazolo[1,5-a]pyrimidine-3-carboxamide] | 18 nM | 0.51 nM | 0.31 nM
CC(C)Sc1ccc(OC(F)F)c(-c2nn(CC(=O)N3CCN(C4CCOC4)CC3)cc2NC(=O)c2cnn3cccnc23)c1 (stereo not drawn) [Example 128, N-[3-[2-(difluoromethoxy)-5-isopropylsulfanyl-phenyl]-1-[2-oxo-2-(4-tetrahydrofuran-3-ylpiperazin-1-yl)ethyl]pyrazol-4-yl]pyrazolo[1,5-a]pyrimidine-3-carboxamide] | 47 nM | 1.2 nM | 0.58 nM
CN1CCC[C@@H]1Cn1cc(NC(=O)c2cnn3cccnc23)c(-c2cc(SC3COC3)ccc2OC(F)F)n1 [Example 176, N-[3-[2-(difluoromethoxy)-5-(oxetan-3-ylsulfanyl)phenyl]-1-[[(2R)-1-methylpyrrolidin-2-yl]methyl]pyrazol-4-yl]pyrazolo[1,5-a]pyrimidine-3-carboxamide] | 28 nM | 1.4 nM | 0.38 nM
CSc1ccc(OC(F)F)c(-c2nn(CC(=O)N3CCN(C4CCN(CC(=O)N(C)C)CC4)CC3)cc2NC(=O)c2cnn3cccnc23)c1 [Example 89, N-[3-[2-(difluoromethoxy)-5-methylsulfanyl-phenyl]-1-[2-[4-[1-[2-(dimethylamino)-2-oxo-ethyl]-4-piperidyl]piperazin-1-yl]-2-oxo-ethyl]pyrazol-4-yl]pyrazolo[1,5-a]pyrimidine-3-carboxamide] | 200 nM | 0.78 nM | 0.51 nM
CC(C)Sc1ccc(OC(F)F)c(-c2nn(CC(=O)N3CCC(CN4CCN(CC(=O)N(C)C)CC4)CC3)cc2NC(=O)c2cnn3cccnc23)c1 [Example 114, N-[3-[2-(difluoromethoxy)-5-isopropylsulfanyl-phenyl]-1-[2-[4-[[4-[2-(dimethylamino)-2-oxo-ethyl]piperazin-1-yl]methyl]-1-piperidyl]-2-oxo-ethyl]pyrazol-4-yl]pyrazolo[1,5-a]pyrimidine-3-carboxamide] | 55 nM | 3.9 nM | 1.6 nM
CSc1ccc(OC(F)F)c(-c2nn(CC(=O)N3CCC(N4CCOCC4CO)CC3)cc2NC(=O)c2cnn3cccnc23)c1 (stereo not drawn) [Example 85, N-[3-[2-(difluoromethoxy)-5-methylsulfanyl-phenyl]-1-[2-[4-[3-(hydroxymethyl)morpholin-4-yl]-1-piperidyl]-2-oxo-ethyl]pyrazol-4-yl]pyrazolo[1,5-a]pyrimidine-3-carboxamide] | 110 nM | 0.38 nM | 0.33 nM
